# Data taken from ChEMBL document CHEMBL1201862, “PubChem BioAssay data set” (2004).
# Calls of active or inactive are those of the source.
# Tests used:
# Leucine aminopeptidase = target: T1, Leucine aminopeptidase (Plasmodium falciparum 3D7, UniProt Q8IL11); assay: P. falciparum M17LAP inhibitors, primary screen, biochemical, fluorogenic H-Leu-NHMec substrate, 1536-well (AID 1619); assay type: functional
# T1 sequence (Q8IL11 whole entry): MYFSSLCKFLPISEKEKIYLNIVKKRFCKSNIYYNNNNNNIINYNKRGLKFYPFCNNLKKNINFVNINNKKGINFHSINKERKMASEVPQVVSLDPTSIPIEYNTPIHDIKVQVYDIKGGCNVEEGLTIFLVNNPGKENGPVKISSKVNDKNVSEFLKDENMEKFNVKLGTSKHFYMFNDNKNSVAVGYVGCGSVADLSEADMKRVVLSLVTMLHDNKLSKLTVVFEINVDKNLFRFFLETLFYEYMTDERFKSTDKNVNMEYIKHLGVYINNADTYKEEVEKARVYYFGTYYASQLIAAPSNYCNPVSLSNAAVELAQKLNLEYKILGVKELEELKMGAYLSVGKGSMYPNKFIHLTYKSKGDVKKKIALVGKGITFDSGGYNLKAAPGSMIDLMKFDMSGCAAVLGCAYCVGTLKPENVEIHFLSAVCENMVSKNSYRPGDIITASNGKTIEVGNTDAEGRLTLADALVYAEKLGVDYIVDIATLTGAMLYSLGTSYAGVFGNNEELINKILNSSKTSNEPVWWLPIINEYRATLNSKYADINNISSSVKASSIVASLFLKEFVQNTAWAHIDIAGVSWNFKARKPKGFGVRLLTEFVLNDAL
# Aminopeptidase N = target: T2, Aminopeptidase N (Plasmodium falciparum FcB1/Columbia, UniProt O96935); assay: P. falciparum M1AAP inhibitors, biochemical, fluorogenic H-Leu-NHMec substrate, 1536-well (AID 1445); parameters: species or system Plasmodium falciparum 3D7, 3D7
# T2 sequence (O96935 whole entry): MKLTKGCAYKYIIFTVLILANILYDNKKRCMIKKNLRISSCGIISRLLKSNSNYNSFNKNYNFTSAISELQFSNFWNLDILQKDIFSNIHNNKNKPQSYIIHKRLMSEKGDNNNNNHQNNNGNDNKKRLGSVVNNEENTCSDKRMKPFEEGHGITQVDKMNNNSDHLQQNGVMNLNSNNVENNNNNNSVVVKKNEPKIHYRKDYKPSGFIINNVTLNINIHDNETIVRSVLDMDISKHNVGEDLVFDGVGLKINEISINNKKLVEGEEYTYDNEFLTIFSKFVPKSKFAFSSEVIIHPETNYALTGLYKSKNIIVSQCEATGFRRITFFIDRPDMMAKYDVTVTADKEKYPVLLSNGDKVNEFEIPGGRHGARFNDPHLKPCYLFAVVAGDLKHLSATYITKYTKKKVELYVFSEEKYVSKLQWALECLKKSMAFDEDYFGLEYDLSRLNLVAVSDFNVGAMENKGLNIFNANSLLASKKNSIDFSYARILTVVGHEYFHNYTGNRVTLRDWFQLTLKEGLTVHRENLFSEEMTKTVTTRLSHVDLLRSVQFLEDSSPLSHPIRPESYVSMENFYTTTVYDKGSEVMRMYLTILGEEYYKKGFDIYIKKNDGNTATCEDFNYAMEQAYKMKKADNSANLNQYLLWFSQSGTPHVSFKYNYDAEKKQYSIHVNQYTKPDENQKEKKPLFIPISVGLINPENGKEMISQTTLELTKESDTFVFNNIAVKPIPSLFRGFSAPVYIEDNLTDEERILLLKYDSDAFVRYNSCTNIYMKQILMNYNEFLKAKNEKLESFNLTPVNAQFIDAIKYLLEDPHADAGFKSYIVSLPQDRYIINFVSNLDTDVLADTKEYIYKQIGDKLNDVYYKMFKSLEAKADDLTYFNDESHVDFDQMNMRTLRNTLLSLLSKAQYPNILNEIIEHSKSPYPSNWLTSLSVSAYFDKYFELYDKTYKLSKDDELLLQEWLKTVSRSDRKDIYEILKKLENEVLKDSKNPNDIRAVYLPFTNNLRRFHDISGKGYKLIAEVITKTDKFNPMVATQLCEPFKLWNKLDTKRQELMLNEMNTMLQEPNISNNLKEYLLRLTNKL
# [1] = target: T3, High affinity choline transporter 1 (Homo sapiens, UniProt Q9GZV3); assay: CHT inhibitors, dose response, cell-based, 5-point CRC, membrane potential dye (AID 504840); assay type: functional
# T3 sequence (Q9GZV3 whole entry): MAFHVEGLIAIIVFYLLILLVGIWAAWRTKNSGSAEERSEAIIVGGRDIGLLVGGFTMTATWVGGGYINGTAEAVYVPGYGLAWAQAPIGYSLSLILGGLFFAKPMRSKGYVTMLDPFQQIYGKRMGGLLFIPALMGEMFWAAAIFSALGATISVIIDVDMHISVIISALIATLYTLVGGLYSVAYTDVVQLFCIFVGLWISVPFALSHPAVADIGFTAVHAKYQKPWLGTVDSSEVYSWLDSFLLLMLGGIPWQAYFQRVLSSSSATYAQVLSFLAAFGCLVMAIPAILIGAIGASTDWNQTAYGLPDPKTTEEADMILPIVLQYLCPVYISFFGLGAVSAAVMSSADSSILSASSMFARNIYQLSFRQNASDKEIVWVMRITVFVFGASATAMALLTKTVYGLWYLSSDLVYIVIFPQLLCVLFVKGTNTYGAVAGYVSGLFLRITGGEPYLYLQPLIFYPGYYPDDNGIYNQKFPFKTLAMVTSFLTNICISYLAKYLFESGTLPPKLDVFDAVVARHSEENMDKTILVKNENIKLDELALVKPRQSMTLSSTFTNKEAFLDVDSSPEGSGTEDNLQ
# [2] = target: Induced myeloid leukemia cell differentiation protein Mcl-1 (Homo sapiens, UniProt Q07820); assay type: functional
# Genome polyprotein = Genome polyprotein (dengue virus type 2, UniProt P29990); assay: Dengue-2 NS5 methyltransferase inhibitors, primary screen, biochemical, confirmation dose response (AID 588689); assay type: functional
# [3] = target: T4, Replicative DNA helicase DnaB (Mycobacterium tuberculosis, UniProt P9WMR3); assay: DnaB intein splicing inhibitors, dose response, biochemical, cell-free fluorescence (AID 449749); assay type: functional
# T4 sequence (P9WMR3 whole entry): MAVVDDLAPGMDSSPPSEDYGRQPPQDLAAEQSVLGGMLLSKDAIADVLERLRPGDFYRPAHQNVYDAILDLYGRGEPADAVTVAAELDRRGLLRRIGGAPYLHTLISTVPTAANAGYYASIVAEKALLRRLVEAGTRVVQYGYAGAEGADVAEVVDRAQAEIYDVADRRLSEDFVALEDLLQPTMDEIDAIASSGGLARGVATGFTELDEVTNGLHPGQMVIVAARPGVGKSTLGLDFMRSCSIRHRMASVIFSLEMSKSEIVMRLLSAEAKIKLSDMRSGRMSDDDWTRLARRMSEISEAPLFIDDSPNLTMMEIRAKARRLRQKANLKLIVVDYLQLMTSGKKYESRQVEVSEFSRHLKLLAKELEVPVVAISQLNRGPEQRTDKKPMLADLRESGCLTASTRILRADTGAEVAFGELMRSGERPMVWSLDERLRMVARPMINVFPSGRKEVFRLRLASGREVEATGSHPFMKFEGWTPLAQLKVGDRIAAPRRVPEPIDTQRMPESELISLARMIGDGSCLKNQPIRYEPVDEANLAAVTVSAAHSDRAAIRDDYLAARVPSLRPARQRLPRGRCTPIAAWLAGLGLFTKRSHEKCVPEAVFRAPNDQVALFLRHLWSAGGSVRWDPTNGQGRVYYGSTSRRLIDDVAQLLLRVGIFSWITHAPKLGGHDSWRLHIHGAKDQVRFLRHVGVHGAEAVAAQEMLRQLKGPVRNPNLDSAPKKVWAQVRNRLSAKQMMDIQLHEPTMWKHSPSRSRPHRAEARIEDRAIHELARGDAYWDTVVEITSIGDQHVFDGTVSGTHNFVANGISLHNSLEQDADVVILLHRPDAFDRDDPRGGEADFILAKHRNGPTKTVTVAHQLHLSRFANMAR
# Protein RecA = target: T5, Protein RecA (Mycobacterium tuberculosis, UniProt P9WHJ3); assay: Fluorescence Cell-Free Homogeneous Dose Retest to Identify Inhibitors of RecA-Intein Splicing Activity. [Related pubchem assays (depositor defined):AID2097, AID2223, AID489010, AID492950]; assay type: functional
# T5 sequence (P9WHJ3 whole entry): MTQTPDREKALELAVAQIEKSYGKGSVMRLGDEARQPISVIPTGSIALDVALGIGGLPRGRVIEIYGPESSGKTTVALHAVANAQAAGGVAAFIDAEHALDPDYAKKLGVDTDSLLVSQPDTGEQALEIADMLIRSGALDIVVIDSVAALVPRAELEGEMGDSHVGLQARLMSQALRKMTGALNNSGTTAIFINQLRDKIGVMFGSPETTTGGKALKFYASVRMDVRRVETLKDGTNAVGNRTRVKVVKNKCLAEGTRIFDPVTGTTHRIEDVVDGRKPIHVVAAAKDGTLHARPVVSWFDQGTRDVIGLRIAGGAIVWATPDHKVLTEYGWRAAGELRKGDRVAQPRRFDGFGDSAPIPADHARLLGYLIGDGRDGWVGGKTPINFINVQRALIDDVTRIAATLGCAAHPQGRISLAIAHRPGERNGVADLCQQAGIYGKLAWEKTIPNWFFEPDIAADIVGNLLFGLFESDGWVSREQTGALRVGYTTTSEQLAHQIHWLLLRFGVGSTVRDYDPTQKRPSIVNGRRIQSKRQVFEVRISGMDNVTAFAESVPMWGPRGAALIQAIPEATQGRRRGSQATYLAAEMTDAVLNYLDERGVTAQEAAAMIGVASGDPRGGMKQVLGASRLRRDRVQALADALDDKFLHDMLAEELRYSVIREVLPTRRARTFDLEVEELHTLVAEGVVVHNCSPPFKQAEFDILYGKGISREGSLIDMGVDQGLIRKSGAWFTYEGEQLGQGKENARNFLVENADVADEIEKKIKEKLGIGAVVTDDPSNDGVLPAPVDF
# [4] = target: Peroxisome proliferator-activated receptor gamma/Nuclear receptor coactivator 2 (Homo sapiens, UniProt P37231); assay type: functional;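 also: agonist potency for raising coactivator recruitment to the receptor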
# [5] = target: Peroxisome proliferator-activated receptor gamma/Nuclear receptor coactivator 3 (Homo sapiens, UniProt P37231); assay type: functional;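 also: agonist potency for raising coactivator recruitment to the receptor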
# [6] = target: Peroxisome proliferator-activated receptor gamma/Nuclear receptor coactivator 1 (Homo sapiens, UniProt P37231); assay type: functional;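 also: agonist potency as compounds enhance coactivator SRC-1 recruitment to PPARgamma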
# [7] = A cytotoxicity screen of small molecule inhibitors of the PhoP region in Salmonella typhi identified in the primary screen. [Related pubchem assays: 1850, 1864, 1985 ]; assay type: functional
# [8] = Luminescence Cell-Based Dose Response to Identify Activators of Luciferase Translation or Activity in H4-C Neuroglioblastoma Cells. [Related pubchem assays: 1829 (Project Summary), 1814 (Primary HTS)]; assay type: functional
# H4 = assay: Luminescence Cell-Based Dose Response HTS to Identify Activators of 5'UTR Stem-Loop Driven Prion Protein mRNA Translation in H4 Neuroglioblastoma Cells. [Related pubchem assays: 1829 (Project Summary), 1814 (Primary HTS)]; assay type: functional; conditions: Homo sapiens
# [9] = Luminescence Cell-Based Dose Confirmation HTS to Identify Activators of 5'UTR Stem-Loop Driven Alpha-Synuclein mRNA Translation in H4 Neuroglioblastoma Cells. [Related pubchem assays: 1829 (Project Summary), 1814 (Primary HTS)]; assay type: functional
# [10] = Luminescence Cell-Based Dose Response HTS to Identify Activators of Luciferase Translation or Activity in H4 […] Cells. [Related pubchem assays: 1829 (Project Summary), 1814 (Primary HTS)]; assay type: functional
# [11] = Luminescence Cell-Based Dose Response to Identify Activators of 5'UTR Stem-Loop Driven Prion Protein mRNA Translation in H4-C Neuroglioblastoma Cells. [Related pubchem assays: 1829 (Project Summary), 1814 (Primary HTS)]; assay type: functional
# [12] = Luminescence Cell-Based Dose Confirmation to Identify Activators of 5'UTR Stem-Loop Driven Alpha-Synuclein mRNA Translation in H4 Neuroglioblastoma Cells. [Related pubchem assays: 1829 (Project Summary), 1814 (Primary HTS)]; assay type: functional
# Cytochrome P450 2C19 = Cytochrome P450 2C19 (Homo sapiens, UniProt P33261); assay: Cytochrome panel assay with activity outcomes. Panel member name: p450-cyp2c19 Compounds with AC50 equal or less than 10 uM are considered active; assay type: functional; conditions: read-out: AC50
# Cytochrome P450 2C19, sequence (P33261 whole entry): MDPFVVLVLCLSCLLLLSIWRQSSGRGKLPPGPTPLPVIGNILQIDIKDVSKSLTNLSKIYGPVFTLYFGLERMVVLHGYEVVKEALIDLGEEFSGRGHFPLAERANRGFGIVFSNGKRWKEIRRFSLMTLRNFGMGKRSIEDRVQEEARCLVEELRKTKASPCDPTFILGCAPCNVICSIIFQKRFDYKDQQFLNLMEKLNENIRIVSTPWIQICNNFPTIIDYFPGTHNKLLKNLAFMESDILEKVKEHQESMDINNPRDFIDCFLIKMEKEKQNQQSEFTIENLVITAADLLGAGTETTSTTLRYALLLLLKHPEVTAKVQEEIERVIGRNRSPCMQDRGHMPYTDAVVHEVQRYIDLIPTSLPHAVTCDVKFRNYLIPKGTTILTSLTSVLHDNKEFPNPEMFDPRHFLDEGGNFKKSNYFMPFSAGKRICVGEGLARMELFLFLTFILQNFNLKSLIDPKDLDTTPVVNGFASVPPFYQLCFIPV
# Peroxisome proliferator-activated receptor gamma/Nuclear receptor coactivator 2, sequence (P37231 whole entry): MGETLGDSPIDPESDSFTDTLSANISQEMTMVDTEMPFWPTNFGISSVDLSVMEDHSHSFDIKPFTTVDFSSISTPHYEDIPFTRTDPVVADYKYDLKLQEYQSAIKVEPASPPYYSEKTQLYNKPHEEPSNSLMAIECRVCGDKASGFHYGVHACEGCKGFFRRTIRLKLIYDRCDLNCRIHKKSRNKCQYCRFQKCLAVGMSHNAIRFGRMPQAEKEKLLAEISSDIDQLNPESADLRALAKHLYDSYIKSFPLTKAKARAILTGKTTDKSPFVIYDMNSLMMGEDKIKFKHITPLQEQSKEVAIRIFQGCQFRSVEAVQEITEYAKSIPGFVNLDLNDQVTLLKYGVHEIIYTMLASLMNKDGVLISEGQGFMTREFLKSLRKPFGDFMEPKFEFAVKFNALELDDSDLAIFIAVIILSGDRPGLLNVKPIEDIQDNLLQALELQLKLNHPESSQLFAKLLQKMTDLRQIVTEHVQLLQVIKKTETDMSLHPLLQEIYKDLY
# Peroxisome proliferator-activated receptor gamma/Nuclear receptor coactivator 2, sequence (Q15596 whole entry, further chain): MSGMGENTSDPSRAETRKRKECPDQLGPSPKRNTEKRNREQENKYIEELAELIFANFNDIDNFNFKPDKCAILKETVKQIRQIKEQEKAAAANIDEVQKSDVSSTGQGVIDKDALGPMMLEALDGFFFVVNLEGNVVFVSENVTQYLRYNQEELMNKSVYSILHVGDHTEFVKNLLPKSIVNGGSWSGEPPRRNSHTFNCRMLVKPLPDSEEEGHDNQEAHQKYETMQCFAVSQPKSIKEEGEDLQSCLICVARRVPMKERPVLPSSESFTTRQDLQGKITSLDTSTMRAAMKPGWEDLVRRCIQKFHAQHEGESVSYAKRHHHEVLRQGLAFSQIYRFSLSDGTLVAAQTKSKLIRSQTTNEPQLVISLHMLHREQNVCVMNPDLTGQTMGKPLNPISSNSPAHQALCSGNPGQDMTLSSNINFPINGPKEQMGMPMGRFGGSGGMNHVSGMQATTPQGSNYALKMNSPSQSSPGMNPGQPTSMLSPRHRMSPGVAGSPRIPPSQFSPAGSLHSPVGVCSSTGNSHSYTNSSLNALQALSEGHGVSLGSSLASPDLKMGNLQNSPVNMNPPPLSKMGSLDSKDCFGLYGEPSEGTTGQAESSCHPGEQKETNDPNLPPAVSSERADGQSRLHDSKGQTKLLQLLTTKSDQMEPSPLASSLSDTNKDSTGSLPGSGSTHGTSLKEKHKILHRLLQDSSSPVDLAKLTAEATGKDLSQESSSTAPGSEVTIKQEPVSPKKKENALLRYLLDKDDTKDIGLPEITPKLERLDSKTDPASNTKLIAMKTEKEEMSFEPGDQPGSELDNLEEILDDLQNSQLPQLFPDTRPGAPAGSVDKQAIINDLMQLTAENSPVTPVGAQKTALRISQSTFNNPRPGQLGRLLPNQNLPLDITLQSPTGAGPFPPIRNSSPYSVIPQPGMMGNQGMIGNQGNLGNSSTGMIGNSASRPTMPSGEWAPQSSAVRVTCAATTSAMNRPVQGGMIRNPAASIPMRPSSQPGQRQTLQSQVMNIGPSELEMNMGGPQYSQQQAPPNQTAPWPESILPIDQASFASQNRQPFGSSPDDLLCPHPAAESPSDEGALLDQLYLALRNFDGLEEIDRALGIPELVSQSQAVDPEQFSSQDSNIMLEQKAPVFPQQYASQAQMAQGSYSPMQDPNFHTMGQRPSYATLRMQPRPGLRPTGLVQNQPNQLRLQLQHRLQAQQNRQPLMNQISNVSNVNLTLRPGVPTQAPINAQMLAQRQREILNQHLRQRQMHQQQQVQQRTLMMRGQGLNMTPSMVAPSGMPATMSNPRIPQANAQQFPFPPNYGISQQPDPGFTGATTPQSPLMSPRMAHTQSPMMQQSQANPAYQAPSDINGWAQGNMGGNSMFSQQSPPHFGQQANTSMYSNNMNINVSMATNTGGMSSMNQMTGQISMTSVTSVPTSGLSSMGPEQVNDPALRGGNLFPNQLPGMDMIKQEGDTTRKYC
# Peroxisome proliferator-activated receptor gamma/Nuclear receptor coactivator 3, sequence (P37231 whole entry): as the sequence (P37231 whole entry) above
# Peroxisome proliferator-activated receptor gamma/Nuclear receptor coactivator 3, sequence (Q9Y6Q9 whole entry, further chain): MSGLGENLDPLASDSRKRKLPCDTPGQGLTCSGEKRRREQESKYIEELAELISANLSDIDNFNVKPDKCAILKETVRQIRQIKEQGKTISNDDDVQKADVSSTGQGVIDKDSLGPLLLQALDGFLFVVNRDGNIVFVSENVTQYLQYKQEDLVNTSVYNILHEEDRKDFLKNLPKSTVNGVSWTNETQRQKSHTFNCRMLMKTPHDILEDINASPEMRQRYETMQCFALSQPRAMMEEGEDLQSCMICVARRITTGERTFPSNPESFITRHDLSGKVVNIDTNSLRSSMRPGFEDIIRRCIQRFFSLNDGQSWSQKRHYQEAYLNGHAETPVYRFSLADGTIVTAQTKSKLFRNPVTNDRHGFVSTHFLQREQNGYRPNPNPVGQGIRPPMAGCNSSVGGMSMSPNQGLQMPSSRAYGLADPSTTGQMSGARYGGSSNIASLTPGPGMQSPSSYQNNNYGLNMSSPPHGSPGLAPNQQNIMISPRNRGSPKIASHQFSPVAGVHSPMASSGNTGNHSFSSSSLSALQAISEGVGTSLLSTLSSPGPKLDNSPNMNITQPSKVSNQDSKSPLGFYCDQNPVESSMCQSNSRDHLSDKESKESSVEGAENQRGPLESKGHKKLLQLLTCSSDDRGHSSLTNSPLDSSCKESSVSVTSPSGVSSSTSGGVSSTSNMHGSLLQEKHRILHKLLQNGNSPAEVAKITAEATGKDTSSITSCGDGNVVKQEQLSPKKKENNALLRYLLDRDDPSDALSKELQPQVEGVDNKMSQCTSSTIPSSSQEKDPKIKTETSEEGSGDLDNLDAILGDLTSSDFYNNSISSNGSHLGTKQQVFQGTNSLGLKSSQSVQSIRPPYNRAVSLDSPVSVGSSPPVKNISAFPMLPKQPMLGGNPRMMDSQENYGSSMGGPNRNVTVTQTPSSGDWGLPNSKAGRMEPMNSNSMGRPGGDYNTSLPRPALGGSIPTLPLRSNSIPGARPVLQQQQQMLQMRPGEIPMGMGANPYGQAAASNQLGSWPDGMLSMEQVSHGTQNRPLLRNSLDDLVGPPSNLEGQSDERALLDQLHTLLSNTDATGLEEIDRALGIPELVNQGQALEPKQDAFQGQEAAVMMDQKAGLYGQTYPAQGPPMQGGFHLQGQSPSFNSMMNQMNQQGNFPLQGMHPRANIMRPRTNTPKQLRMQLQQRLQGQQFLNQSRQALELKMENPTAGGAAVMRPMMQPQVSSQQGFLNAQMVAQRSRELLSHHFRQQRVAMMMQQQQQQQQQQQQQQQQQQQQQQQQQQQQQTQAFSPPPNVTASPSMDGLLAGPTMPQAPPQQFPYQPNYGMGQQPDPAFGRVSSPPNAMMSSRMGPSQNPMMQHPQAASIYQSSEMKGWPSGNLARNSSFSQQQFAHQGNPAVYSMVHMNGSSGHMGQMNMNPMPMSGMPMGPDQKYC
# Induced myeloid leukemia cell differentiation protein Mcl-1, sequence (Q07820 whole entry): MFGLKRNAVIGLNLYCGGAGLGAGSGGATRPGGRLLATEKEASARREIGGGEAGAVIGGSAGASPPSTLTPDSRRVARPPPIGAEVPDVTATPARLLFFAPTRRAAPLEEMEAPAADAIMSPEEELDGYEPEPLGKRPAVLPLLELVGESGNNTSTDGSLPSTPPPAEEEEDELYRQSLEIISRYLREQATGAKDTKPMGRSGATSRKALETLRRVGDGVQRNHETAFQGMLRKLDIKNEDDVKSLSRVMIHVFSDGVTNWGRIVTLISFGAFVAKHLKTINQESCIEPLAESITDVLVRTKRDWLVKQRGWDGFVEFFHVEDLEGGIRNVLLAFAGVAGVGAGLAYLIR
compound,measurement,setting,value
Cc1cccc(NC(=O)CSc2nc3n[nH]cc3c(=O)[nH]2)c1,IC50,Leucine aminopeptidase,3.88 µM (active)
Cc1ccc(NC(S)=NNc2ccc([N+](=O)[O-])cc2S(=O)(=O)Nc2ccccc2C(=O)O)cc1C,IC50,Leucine aminopeptidase,5.16 µM (active)
same,IC50,Aminopeptidase N,29.5 µM (active)
same,IC50,[1],12.3 µM (active)
same,IC50,[2],2.99 µM (active)
same,IC50,Genome polyprotein,> 100 µM (active)
CC(C)CC1C(C#N)=C(N)Oc2[nH]nc(-c3ccccc3)c21 (centres undefined),IC50,Leucine aminopeptidase,33.7 µM (active)
same,AC50,[3],5.91 µM (active)
same,EC50,Protein RecA,2.13 µM (active)
COc1c(OC)c(O)c2c(=O)cc(-c3c(O)cccc3O)oc2c1OC,EC50,[4],> 79.4 µM (not active)
same,EC50,[5],> 79.4 µM (not active)
same,EC50,[6],> 79.4 µM (not active)
COc1ccc(S(=O)(=O)N[C@H](C(=O)N2CC[C@@]3(O)CCCC[C@H]3C2)c2ccccc2)cc1,EC50,[7],> 50 µM (active)
c1ccc2nc3c(nc2c1)OCC1CCCCN31 (centres undefined),EC50,[8],0.49 µM (active)
same,EC50,H4,0.161 µM (active)
same,EC50,[9],0.475 µM (active)
same,EC50,[10],0.193 µM (active)
same,EC50,[11],1.45 µM (active)
same,EC50,[12],> 12 µM (not active)
Cc1cc(OCC(=O)Nc2ccc3oc(-c4ccncc4)nc3c2)ccc1Cl,EC50,[4],25.3 µM (not active)
same,EC50,[5],50.6 µM (not active)
same,EC50,[6],24.8 µM (not active)
Cn1cnnc1SCC(=O)Nc1ccc2nc(SCc3ccccc3)sc2c1,EC50,[7],> 50 µM (active)
Cc1ccc(N/N=C2/C(=N)N(c3ccccc3)NC2=O)cc1,EC50,H4,10.6 µM (active)
same,EC50,[4],> 79.4 µM (not active)
same,EC50,[5],> 79.4 µM (not active)
same,AC50,Cytochrome P450 2C19,5.01 µM (inconclusive)
same,EC50,[6],> 79.4 µM (not active)
COc1ccccc1NC(=O)CSc1nc(O)cc(=O)[nH]1,IC50,Leucine aminopeptidase,74.7 µM (active)
Cn1nnc2cc(NC(=O)Nc3cccc(Cl)c3)ccc21,EC50,[8],0.553 µM (active)
same,EC50,H4,0.109 µM (active)
same,EC50,[10],0.176 µM (active)
same,EC50,[11],0.832 µM (active)
same,EC50,[12],0.413 µM (active)
